{
  "source": "patent US20200199530A1",
  "about": "“METHODS OF DIFFERENTIATING STEM CELL-DERIVED ECTODERMAL LINEAGE PRECURSORS” (MEMORIAL SLOAN-KETTERING CANCER CENTER, priority 2017, published 2020)",
  "format_in_all_cases": "cell-based, human",
  "key": {"[1]": {"test_system": "H9 SIX1 H2B::GFP cells", "assay": "LOPAC small-molecule screen for enhancers of placode fate and hit validation", "conditions": "for validation of primary hits: percentage of cells expressing SIX1: CP protocol, FIG. 6C, 13A/13B, 44A/44B; for expression of SIX1 relative to control differentiations (primary screen): LOPAC library, 1 μM and 10 μM, added day 3, read day 6", "procedure": "(§1) H9 SIX1 H2B::GFP cells were differentiated into lens placode as described earlier and plated on 96 well plates coated with Matrigel. On day 3 (day before SIX1 H2B::GFP can be detected in individual cells) the medium was additionally supplemented with compounds from the LOPAC library. Two different concentrations (1 μM and 10 μM) per compound were used. Medium was not changed until day 6 of differentiation. On day 6 of differentiation plates were washed once with PBS and cells were fixed with 4% PFA. To increase the signal intensity over background, the cells were stained using an antibody against GFP. After labeling with an appropriate Alexa488-conjugated secondary antibody and the nuclear counterstain DAPI, cells were analyzed using the Meta Express software (Meta-morph) by calculating the percent nuclear GFP signal over DAPI positive cells."}, "[2]": {"test_system": "hPSC differentiated towards CP (SIX1)", "assay": "Phenanthroline in CP differentiation: marker expression and SIX1 positive cells", "conditions": "for SIX1 positive cells: CP protocol, FIG. 6E, Phenanthroline alone = absence of FGF2, control 18%", "procedure": "(§2) All differentiations starting from E8 were dissociated into single cells using EDTA and re-plated at high density in E8 with the ROCK inhibitor (Tocris). Cells were typically seeded at a density of 200,000 cells/cm^2 on Matrigel coated dishes. Switching from E8 to E6 triggered differentiations (i.e. d0). Neuroectoderm (NE) formation was generated by culturing the cells in E6 with 10 μM SB and 500 nM LDN until d12. Neural Crest (NC) was first treated with 10 μM SB, 600 nM CHIR and 1 ng/ml BMP4 from d0-d2. At d3, cells were maintained in 10 μM SB with 1.5 uM CHIR until d12. Lens placode was first treated with 10 μM SB and 5 ng/ml BMP4 from d0-d2. At d3, cells were maintained in 10 μM SB with 50 ng/ml FGF2 until d12. Trigeminal placode was first treated with 10 μM SB and 5 ng/ml BMP4 from d0-d2. At d2, 600 nm CHIR was added. At d3, cells were treated with 10 μM SB and 600 nM CHIR. From d4-d12, cells were treated with 10 μM SB. Finally, non-neural ectoderm (NNE) was treated with 10 μM SB, 10 μM SU5402 and 10 ng/ml BMP4 from d0-d1, and then treated with 10 μM SB and 5 ng/ml BMP4 from d2-d12.\nas §1"}, "[3]": {"test_system": "hPSCs", "assay": "Tolerability of small molecules during E6-based differentiation", "conditions": "had to be re-titrated"}, "[4]": {"test_system": "hPSC-derived pituitary cells", "assay": "Stimulation of hormone release in vitro (ELISA)", "conditions": "day 30 cells, CRF 1 μM, Somatocrinin 1 μg/ml, vs solvent control; for ACTH release: Stressin I 2 μM, Urocortin 500 nM, Ghrelin 1 μM", "procedure": "To stimulate hormone release in vitro, cells were differentiated in 24 well plates as described above. On day 30 of differentiation cells were washed once with PBS and 250 μl of fresh medium containing either the solvent or the stimulant were added to each well. After 12 h the supernatant was removed and centrifuged for 5 min at 2000 g to pellet debris. Supernatant was transferred into fresh reaction tubes, flash frozen and stored at −80° C. until ELISA measurements. Stimulants used were: CRF (Tocris, 1 μM), Stressin I (Tocris, 2 μM), Ghrelin (Tocris, 1 μM), Somatocrinin (Accurate Chemical, 1 μg/ml), Nafarelin (Tocris, 1 μM) and Urocortin (Tocris, 500 nM).\nHormone concentration in the supernatant of cells or in animal serum was analyzed using ELISA measurements. Hormone concentration in the cell culture supernatant was assessed using traditional single hormone ELISA Kits according to the manufactures manual. ACTH (Calbiotech, detects rat and human ACTH), hGH (R&D Systems, human specific), FSH (Calbiotech, FSH (lumELISA, human specific) and corticosterone (Abcam). Plates were read using an EnSpire Multimode plate reader (PerkinElmer). Hormone concentration in in vivo samples was analyzed using either traditional ELISA (for ACTH only, serum diluted 1:2) or species specific (human or rat) Milliplex multiplex ELISA using Luminex technology (Millipore). Magnetic bead-based sandwich immunoassay was performed according to the manufactures manual. 25 μl of undiluted serum samples in duplicate wells were analyzed by Luminex FlexMap 3D (Luminex Corp, Austin, Tex.). Cytokine concentrations were determined by Luminex Xponent 4.1 and EMD-Millipore Milliplex Analyst v5.1 using 5-p log analysis."}, "[5]": {"test_system": "hPSC (SIX1::H2B-GFP reporter)", "assay": "Cranial placode induction in E6 media, SIX1 positive cells", "procedure": "as §2\nCranial Placode differentiation. Day 0 (0-24 hrs): Add E6 media containing 5 ng/ml BMP4+10 μM SB to cells.\nDay 1 (24-48 hrs): Change media with E6 media containing 5 ng/ml BMP4+10 μM SB to cells.\nDay 2 (48-72 hrs): Change media with E6 media containing 5 ng/ml BMP4+10 μM SB to cells. […]"}, "[6]": {"test_system": "hPSCs (TFAP2A expression)", "assay": "BMP4 induction of TFAP2A and non-neural ectoderm in E6 media", "procedure": "as §2, with “Finally, non-neural ectoderm (NNE) was treated with 10 μM SB, 10 μM SU5402 and 10 ng/ml BMP4 from d0-d1, and then treated with 10 μM SB and 5 ng/ml BMP4 from d2-d12.” left out\nHuman embryonic (H9, H1, HUES8, HUES6 and MEL1) and induced pluripotent stem cells (BJ1, MRC5 and SeV6) were adapted in the E8 media for a minimum of 4 passages (˜2 weeks) and induced to differentiate into the four ectodermal lineages. Bulk differentiations were dissociated using Accutase for 30 min at 37° C. at day 10 of differentiation and seeded in 96 well imaging plates. Cells were fixed two days later using 4% paraformaldehyde and permeabilized using 0.5% Triton-X and maintained in 0.2% Tween all diluted with PBS. Cells were then stained using antibodies against various markers indicative of the ectodermal lineages. Plates were scanned and measurements recorded using an IN Cell Analyzer 6000 (GE) and quantified using the Columbus image analysis software (PerkinElmer). Experiments involving these cell lines were biologically replicated (n=4) and technically replicated (n=2 per biological replicate)."}, "[7]": {"test_system": "hPSC (SOX10::GFP reporter)", "assay": "Neural crest induction in E6 media, SOX10 positive cells", "procedure": "as §2\nNeural Crest differentiation. Day 0 (0-24 hrs): Add E6 media containing 1 ng/ml BMP4+10 μM SB+600 nM CHIR to cells.\nDay 1 (24-48 hrs): Change media with E6 media containing 1 ng/ml BMP4+10 μM SB+600 nM CHIR to cells. […]"}, "[8]": {"conditions": "three-day pulse with SB431542 in E6"}},
  "note": "Entries after “also recorded” stand apart in the source; their conditions may differ. Ends that are not written are not given here.",
  "data": [
    {"molecule": "CN1CCC(c2c[nH]c3ccc(O)cc23)CC1", "note": "[BRL-5443]", "values": [
      {"measurement": "validation of primary hits: percentage of cells expressing SIX1", "setting": "[1]", "result": "increased the level of SIX1 expressing CP precursor cells"},
      {"measurement": "validation of primary hits: percentage of cells expressing SIX1", "setting": "[1]; listed as BRL-54443", "result": "did not produce a significant difference"},
      {"measurement": "expression of SIX1 relative to control differentiations (primary screen)", "setting": "[1]", "result": "increased expression of SIX1 above the levels observed in control differentiations"}
    ]},
    {"molecule": "c1cnc2c(c1)ccc1cccnc12", "note": "[Phenanthroline]", "values": [
      {"measurement": "SIX1 positive cells", "setting": "[2]", "result": 69, "unit": "%"},
      {"measurement": "fold increase of SIX1 positive cells versus control", "setting": "[2]; absence of FGF2, 69% versus 18%", "result": "~4", "unit": "fold"},
      {"measurement": "expression of other lineage markers (Sox10, T, MyoD, Sox17)", "setting": "[2]; differentiation towards CP, FIG. 6D", "result": "without inducing the expression of other lineage markers"},
      {"measurement": "validation of primary hits: percentage of cells expressing SIX1", "setting": "[1]", "result": "confirmed to reliably enhance the percentage of cells expressing Six1; also recorded: confirmed to trigger a robust increase in the percentage of cells expressing SIX1; also recorded: large majority of cells"},
      {"measurement": "expression of SIX1 relative to control differentiations (primary screen)", "setting": "[1]", "result": "increased expression of SIX1 above the levels observed in control differentiations"}
    ]},
    {"molecule": "Cc1c[nH]c(/C=C2\\C(=O)Nc3ccccc32)c1CCC(=O)O", "note": "[SU5402, 2-[(1,2-Dihydro-2-oxo-3H-indol-3-ylidene)methyl]-4-methyl-1H-pyrrole-3-pr-opanoic acid]", "values": [
      {"measurement": "cell killing at the original (KSR protocol) concentration", "setting": "[3]", "result": "effectively killed the cells"}
    ]},
    {"molecule": "CRF: stimulant of hormone release (Tocris, 1 μM) (SEEPPISLDLTFHLLREVLEMARAEQLAQQAHSNRKLMEII; ends and bridges not checked; UniProt P06850 154-194, looked up)", "values": [
      {"measurement": "ACTH release", "setting": "[4]", "result": "induced release of ACTH; also recorded: specifically induced"},
      {"measurement": "GH release", "setting": "[4]", "result": "not"}
    ]},
    {"molecule": "FGF2: activator of FGF signaling", "values": [
      {"measurement": "SIX1 positive cells", "setting": "[2]", "result": 34, "unit": "%"},
      {"measurement": "SIX1 positive cells after addition of FGF agonist", "setting": "[5]; E6 with SB431542 and BMP pulse, FIG. 2G/38B", "result": "~50", "unit": "%"}
    ]},
    {"molecule": "Ghrelin: stimulant used (Tocris, 1 μM) (GSSFLSPEHQRVQQRKESKKPPAKLQPR; ends and bridges not checked; UniProt Q9UBU3 24-51, looked up)", "values": [
      {"measurement": "ACTH release", "setting": "[4]", "result": "did not trigger ACTH release and not"}
    ]},
    {"molecule": "Somatocrinin: stimulant of hormone release (Accurate Chemical, 1 μg/ml) (YADAIFTNSYRKVLGQLSARKLLQDIMSRQQGESNQERGARARL; ends and bridges not checked; UniProt P01286 32-75, looked up)", "values": [
      {"measurement": "ACTH release", "setting": "[4]", "result": "not"},
      {"measurement": "ACTH release", "setting": "[4]; listed as somatocrinin", "result": "did not trigger ACTH release"},
      {"measurement": "GH release", "setting": "[4]", "result": "induced"},
      {"measurement": "GH release", "setting": "[4]; listed as somatocrinin", "result": "triggered robust increase in GH release"}
    ]},
    {"molecule": "Urocortin: stimulant of hormone release (Tocris, 500 nM) (DNPSLSIDLTFHLLRTLLELARTQSQRERAEQNRIIFDSV; ends and bridges not checked; UniProt P55089 83-122, looked up)", "values": [
      {"measurement": "ACTH release", "setting": "[4]", "result": "specifically induced"},
      {"measurement": "ACTH release", "setting": "[4]; listed as urocortin", "result": "induced release of ACTH"}
    ]},
    {"molecule": "BMP4: activator of BMP signaling (protein, UniProt P12644 293-408, looked up) Bone morphogenetic protein 4: SPKHHSQRARKKNKNCRRHSLYVDFSDVGWNDWIVAPPGYQAFYCHGDCPFPLADHLNSTNHAIVQTLVNSVNSSIPKACCVPTELSAISMLYLDEYDKVVLKNYQEMVVEGCGCR", "values": [
      {"measurement": "BMP4 concentration optimal for CP induction (dose-response studies)", "setting": "[5]; [8]", "result": "around 5 ng/ml"},
      {"measurement": "NNE marker phenotype at high BMP4 concentration", "setting": "[6]; 20 ng/ml", "result": "cells become TFAP2A+ and lack expression of SOX10 and SIX1; also recorded: derivation of TFAP2A+, PAX6−, SIX1−, and SOX10− NNE is achieved"},
      {"measurement": "percentages of TFAP2A+ cells", "setting": "[6]; with addition of BMP4, range across ESC/iPSC lines, 0%-5% without BMP4", "result": "56%-95%"},
      {"measurement": "TFAP2A expression", "setting": "[6]; within 3 days of treatment, dose-dependent", "result": "rapidly upregulated"},
      {"measurement": "SOX10 positive NC population", "setting": "[7]; short pulse 1 ng/ml in combination with WNT activation", "result": "nearly homogenous SOX10 positive NC population; also recorded: nearly homogeneous SOX10+ NC population"},
      {"measurement": "BMP4 concentration giving strong NC induction (dose-response studies)", "setting": "[7]; [8]", "result": "around 1 ng/ml"}
    ]}
  ]
}
